The numbers were not newly measured in patent US11173121B2, “Pellets having a multi-layer structure for delayed release of the active substance in the distal colon” (Dr. Falk Pharma GmbH, priority 2018, dated 2021), which cites them from elsewhere.

Structures are written as SMILES.

On to `CCCC1O[C@@H]2C[C@H]3[C@@H]4CCC5=CC(=O)C=C[C@]5(C)[C@H]4[C@@H](O)C[C@]3(C)[C@]2(C(=O)CO)O1` (stereo partly shown) [budesonide], for which the pKa value is reported as 12.85±0.10.
